Measurements as given in EP4663640A1 (Shanghai Institute of Materia Medica, Chinese Academy of …, priority 2023, dated 2024).
Like-named read-outs stand apart in the source and are kept apart here.

Columns and labels:
hTRPC3 = target: T1, hTRPC3 (Homo sapiens, UniProt Q13507); assay: TRPC3 inhibitory activity assay (FLIPR calcium fluorescence); assay type: cell-based; conditions: for relative selectivity TRPC3/ TRPC5: ratio of IC50 values
T1 construct: expressed in transfected cells; host or cells: HEK-293
T1 sequence (Q13507 1-921): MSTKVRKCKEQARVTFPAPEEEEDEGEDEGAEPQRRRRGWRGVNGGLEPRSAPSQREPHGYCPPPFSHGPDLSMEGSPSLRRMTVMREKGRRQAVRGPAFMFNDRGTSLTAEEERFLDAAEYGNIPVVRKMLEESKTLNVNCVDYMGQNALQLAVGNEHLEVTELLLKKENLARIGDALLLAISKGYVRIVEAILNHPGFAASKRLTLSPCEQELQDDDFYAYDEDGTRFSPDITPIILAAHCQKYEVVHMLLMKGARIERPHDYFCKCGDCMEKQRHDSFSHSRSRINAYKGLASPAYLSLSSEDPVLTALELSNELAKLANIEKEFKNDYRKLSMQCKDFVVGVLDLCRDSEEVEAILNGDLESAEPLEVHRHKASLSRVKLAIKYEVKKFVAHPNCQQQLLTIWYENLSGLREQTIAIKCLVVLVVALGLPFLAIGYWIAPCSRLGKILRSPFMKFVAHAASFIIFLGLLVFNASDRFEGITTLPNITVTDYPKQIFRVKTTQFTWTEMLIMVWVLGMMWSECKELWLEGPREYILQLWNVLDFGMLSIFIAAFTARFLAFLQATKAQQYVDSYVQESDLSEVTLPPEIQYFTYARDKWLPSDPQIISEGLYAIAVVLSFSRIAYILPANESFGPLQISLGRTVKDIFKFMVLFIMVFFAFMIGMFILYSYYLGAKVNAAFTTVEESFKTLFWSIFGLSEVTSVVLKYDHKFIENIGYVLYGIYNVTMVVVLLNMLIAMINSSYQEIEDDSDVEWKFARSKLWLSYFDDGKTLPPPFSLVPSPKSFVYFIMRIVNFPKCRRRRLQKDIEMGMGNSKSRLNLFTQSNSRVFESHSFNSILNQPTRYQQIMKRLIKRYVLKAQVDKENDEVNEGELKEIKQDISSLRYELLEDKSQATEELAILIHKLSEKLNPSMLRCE
Method: HEK-293 cells expressing hTRPC3, hTRPC4 or hTRPC5 were seeded into black-bottomed 96-well plates coated with poly-lysine (PDL), with 2×10^4 cells per well. After 8 h of culture, the original culture medium was discarded, and 60 µL of Fluo-4/AM dye with a final concentration of 4 µM was added. The plates were incubated at 37 °C for 60 min, and then rinsed five times with calcium flow detection buffer. […] Then, the agonist Englerin A (EA) (MedChemExpress, Shanghai, China, final concentration of 0.3nM) was added, and the fluorescence signal was collected for 600 seconds. The fluorescence signal of the trajectory diagram is represented by F/F0, wherein F is the fluorescence signal at different time points, and F0 is the basic fluorescence signal, that is, the average value of the fluorescence signal at the first 10 time points. […] The area under the curve of the change in fluorescence intensity after adding EA was calculated. IC50 value was calculated using log[Inhibitor] vs. response - Variable slope, taking into account the area under the curve and the log value of the concentration of the compound.

[1] = target: T2, hERG channel (relative to TRPC5) (Homo sapiens, UniProt Q12809); assay: hERG channel inhibition assay (Qpatch whole-cell recording, CHO cells expressing hERG); assay type: cell-based; conditions: human, CHO cells expressing hERG; ratio of IC50 values
T2 construct: expressed in transfected cells; host or cells: CHO
T2 sequence (Q12809 whole entry): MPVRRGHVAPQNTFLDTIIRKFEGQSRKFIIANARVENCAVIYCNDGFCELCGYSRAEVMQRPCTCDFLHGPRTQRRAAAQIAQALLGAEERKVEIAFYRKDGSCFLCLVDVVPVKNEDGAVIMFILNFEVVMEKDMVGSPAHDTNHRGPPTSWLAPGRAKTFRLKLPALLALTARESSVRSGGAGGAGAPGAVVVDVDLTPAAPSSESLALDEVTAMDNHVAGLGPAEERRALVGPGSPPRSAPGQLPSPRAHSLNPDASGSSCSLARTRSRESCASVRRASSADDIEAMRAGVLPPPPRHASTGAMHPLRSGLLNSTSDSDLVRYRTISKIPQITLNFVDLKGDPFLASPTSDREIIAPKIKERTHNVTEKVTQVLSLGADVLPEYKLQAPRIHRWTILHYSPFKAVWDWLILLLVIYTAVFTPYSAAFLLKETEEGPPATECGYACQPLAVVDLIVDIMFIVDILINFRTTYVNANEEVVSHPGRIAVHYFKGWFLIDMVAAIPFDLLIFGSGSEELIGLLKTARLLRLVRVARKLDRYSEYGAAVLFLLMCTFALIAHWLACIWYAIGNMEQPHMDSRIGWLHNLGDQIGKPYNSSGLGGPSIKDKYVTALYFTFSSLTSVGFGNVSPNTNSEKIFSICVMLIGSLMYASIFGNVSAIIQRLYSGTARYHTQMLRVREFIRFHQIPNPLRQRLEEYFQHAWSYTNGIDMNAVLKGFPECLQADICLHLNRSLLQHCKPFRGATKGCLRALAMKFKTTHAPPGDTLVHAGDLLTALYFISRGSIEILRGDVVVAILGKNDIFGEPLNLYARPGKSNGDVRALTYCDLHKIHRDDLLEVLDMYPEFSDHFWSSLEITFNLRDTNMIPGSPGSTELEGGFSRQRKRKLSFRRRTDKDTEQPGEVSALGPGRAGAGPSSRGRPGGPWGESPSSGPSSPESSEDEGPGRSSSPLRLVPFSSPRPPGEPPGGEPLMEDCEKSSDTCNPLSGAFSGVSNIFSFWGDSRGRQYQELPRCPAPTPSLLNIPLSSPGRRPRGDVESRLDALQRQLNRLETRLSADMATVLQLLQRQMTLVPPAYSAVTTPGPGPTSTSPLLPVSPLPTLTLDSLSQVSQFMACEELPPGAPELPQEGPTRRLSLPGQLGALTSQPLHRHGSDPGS
Method: CHO cells expressing hERG protein were cultured in 175cm^2 culture flasks. When the cell density grew to 60-80%, the culture medium was removed, and the cells were washed with 7mL PBS, and then 3mL Detachin was added for digestion. After digestion was complete, 7mL culture medium was added for neutralization, and then centrifuged, the supernatant was aspirated, and 5mL culture medium was added for resuspending to ensure that the cell density was 2-5×10^6/mL.
The single-cell high-impedance sealing and whole-cell pattern formation process were all automatically completed by the Qpatch instrument. After obtaining the whole-cell recording mode, the cell was clamped at -80 mV. […] This voltage stimulus was applied every 15 seconds. After recording for 2 minutes, the extracellular solution was recorded for 2 minutes, and then the drug administration process began. The compound concentration started from the lowest test concentration, and each test concentration was given for 2 minutes. After all concentrations were given continuously, the positive control compound 10 µM Cisapride was given. At least 3 cells (n≥3) were tested for each concentration.
The stock solution of compound was diluted with extracellular solution, 5 µL of 20 mM compound stock solution was added to 2495 µL of extracellular solution, 500 times diluted to 40 µM, and then 3 times serial dilution was performed in the extracellular solution containing 0.2% DMSO to obtain the final concentration to be tested.
(5) Data analysis: The experimental data were analyzed by XLFit software.

mice = assay: Marble burial test (antianxiety); assay type: in vivo; conditions: for number of buried marbles: test with reduced dosage (Figure 5)
Method: The drug to be tested was dissolved in DMSO: Tween 80: distilled water at a ratio of 2:2:96 (v/v/v), and then administered to mice by gavage at a volume of 10 mL/kg. […] The blank control group was only given 10 mL/kg of the above solvent.
The mouse marble burial test is a behavioral assay used for the screening of antianxiety drugs. It exploits the natural digging behavior of mice in environments such as burrows or escape tunnels and is sensitive to small changes in behavior caused by genetic manipulation, disease, or drug treatment.
A 5cm thick sawdust litter was laid in a 33 cm×24 cm×28 cm carton, and 4×5 black marbles (4 cm apart) with a total of 20 black marbles of 14mm in diameter were neatly placed on the litter. The mouse was put into the carton facing the corner for 30 minutes. After 30 minutes, the mouse was carefully taken out and the number of marbles buried by the mouse was counted. If more than 2/3 of the marble was buried, it was considered a whole marble. First, a blank experiment was conducted. Before the experiment, the mouse was taken to the experimental environment to adapt. After 1 hour, the experiment began. After the experiment, the mouse was returned to the cage and the number of marbles buried by the mouse was counted. On the second day, the mouse was taken to the experimental environment to adapt for 1 hour before the drug was administered. After the drug administration, the marble burying experiment was conducted for […]. After the experiment, the mouse was carefully taken out and returned to the cage to prevent the mouse from escaping violently and affecting the experimental results. After counting, the black marbles were taken out and wiped with alcohol, and the litter was turned over again to remove the smell of the previous mouse to prevent it from affecting the experiment of the next mouse. The marbles were neatly placed for the experiment of the next mouse.

[2] = Liver microsome stability test, mouse; assay type: in vitro ADME; conditions: Mouse liver microsomes
Text: Calculation of Intrinsic Clearance: Clint = (1000 × slope)/(P); [formula]

[3] = Table 3, read-out: inhibitory activity IC50 TRPC3

| Compound | IC50 (hTRPC3; [3]) | relative selectivity TRPC3/ TRPC5 (hTRPC3) | selectivity ratio at 2 min [1] | IC50 (hTRPC3) | number of buried marbles (mice; oral 0.03 mg/kg) | number of buried marbles (mice; oral 0.1 mg/kg, better than the same dose of HC-070) | number of marbles buried by mice (mice; oral 0.1-1 mg/kg, before versus after administration (Figure 3)) | Stability Evaluation [2] | MF % ([2]; metabolic bioavailability) | half-life at 1 µM ([2]; pH 7.4, 1µM compound, read-out: Half-life T1/2) |
| --- | --- | --- | --- | --- | --- | --- | --- | --- | --- | --- |
| Cn1c(=O)n(CCCO)c(=O)c2c1nc(C1(F)CCC(C(F)(F)F)CC1)n2Cc1ccc(Cl)cc1 (stereo not drawn) [Example E21, 7-(4-chlorobenzyl)-8-(1-fluoro-4-(trifluoromethyl)cyclohexyl)-1-(3-hydroxypropyl)-3-methyl-3,7-dihydro-1H-purine-2,6-dione] | 2.83 µM | 555 | > 7840 |  |  |  |  |  |  |  |
| COC1CCC(F)(c2nc3c(c(=O)n(CCCO)c(=O)n3C)n2Cc2ccc(Cl)cc2)CC1 (stereo not drawn) [Example E32, 7-(4-chlorobenzyl)-8-(1-fluoro-4-methoxycyclohexyl)-1-(3-hydroxypropyl)-3-methyl-3,7-dihydro-1H-purine-2,6-dione] | > 10 µM | > 980 | 737 |  |  |  |  |  |  |  |
| Cn1c(=O)n(CCCO)c(=O)c2c1nc(C1(F)CCC(C(F)(F)F)CC1)n2Cc1ccc(F)c(F)c1 (stereo not drawn) [Example E52] |  | 1946 |  | 2.53 µM |  |  |  |  |  |  |
| Cn1c(=O)n(CCCO)c(=O)c2c1nc(C1(F)CCC(F)(F)CC1)n2Cc1ccc(F)c(Cl)c1 [Example E68, 7-(3-chloro-4-fluorobenzyl)-1-(3-hydroxypropyl)-3-methyl-8-(1,4,4-trifluorocyclohexyl)-3,7-dihydro-1H-purine-2,6-dione] |  |  | > 69000 |  | can reduce | more obvious | significantly reduced | Medium (30%<MF%<70%, medium metabolic stability) | 49.3% | 46 min |
